The values that follow come from ChEMBL document CHEMBL3132769, “Fragment growing to retain or alter the selectivity of anchored kinase hinge-binding fragments” (Medchemcomm, 2014).

Test [1] has as its system T1, Receptor-type tyrosine-protein kinase FLT3 (Homo sapiens), P36888 [D835Y].
T1 sequence (whole entry): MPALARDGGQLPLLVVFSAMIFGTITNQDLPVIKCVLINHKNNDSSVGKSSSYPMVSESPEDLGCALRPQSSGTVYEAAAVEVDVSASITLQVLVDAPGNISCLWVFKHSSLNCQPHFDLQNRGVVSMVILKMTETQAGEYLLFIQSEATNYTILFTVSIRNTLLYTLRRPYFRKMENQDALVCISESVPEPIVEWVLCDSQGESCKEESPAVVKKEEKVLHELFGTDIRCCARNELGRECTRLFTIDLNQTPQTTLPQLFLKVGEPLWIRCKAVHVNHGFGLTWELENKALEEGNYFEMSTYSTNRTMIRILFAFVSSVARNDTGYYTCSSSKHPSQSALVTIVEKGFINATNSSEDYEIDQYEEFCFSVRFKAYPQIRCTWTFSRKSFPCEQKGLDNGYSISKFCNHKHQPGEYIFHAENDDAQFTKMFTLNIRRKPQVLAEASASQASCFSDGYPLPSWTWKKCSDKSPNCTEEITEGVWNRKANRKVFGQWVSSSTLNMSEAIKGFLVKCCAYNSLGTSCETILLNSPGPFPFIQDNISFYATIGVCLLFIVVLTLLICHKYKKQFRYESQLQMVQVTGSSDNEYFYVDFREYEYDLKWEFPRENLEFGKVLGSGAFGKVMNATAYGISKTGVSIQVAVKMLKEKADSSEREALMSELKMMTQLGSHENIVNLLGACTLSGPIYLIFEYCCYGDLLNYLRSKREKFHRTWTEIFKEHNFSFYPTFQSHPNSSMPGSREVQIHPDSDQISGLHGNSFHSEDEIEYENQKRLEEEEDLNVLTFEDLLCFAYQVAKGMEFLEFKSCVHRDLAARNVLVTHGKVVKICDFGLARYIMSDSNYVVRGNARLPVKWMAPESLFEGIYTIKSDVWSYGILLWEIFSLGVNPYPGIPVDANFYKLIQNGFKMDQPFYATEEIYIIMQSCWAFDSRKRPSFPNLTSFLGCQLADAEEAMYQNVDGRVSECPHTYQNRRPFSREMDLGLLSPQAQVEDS
In words: Inhibition of human FLT3 D835Y mutant catalytic domain expressed in baculovirus assessed as substrate phosphorylation using fluorescence-labelled peptides as substrate at 420 uM after 90 mins by microfluidic peptide phosphorylation assay.

Test [2] deals with MAP/microtubule affinity-regulating kinase 3 (Homo sapiens) (UniProt P27448). In words: Inhibition of human full length c-TAK1 expressed in Escherichia coli cell assessed as substrate phosphorylation using fluorescence-labelled peptides as substrate at 420 uM after 90 mins by microfluidic peptide phosphorylation assay.
In test [3] the target is Hepatocyte growth factor receptor (Homo sapiens) (UniProt P08581). In words: Inhibition of human MET cytoplasmic domain expressed in baculovirus assessed as substrate phosphorylation using fluorescence-labelled peptides as substrate at 0.06 uM after 90 mins by microfluidic peptide phosphorylation assay.
Test [4] addresses Tyrosine-protein kinase Lck (Homo sapiens) (UniProt P06239). In words: Inhibition of human full length LCK expressed in baculovirus assessed as substrate phosphorylation using fluorescence-labelled peptides as substrate at 9 uM after 90 mins by microfluidic peptide phosphorylation assay.
Test [5] concerns the target Receptor-type tyrosine-protein kinase FLT3 (Homo sapiens) (UniProt P36888). In words: Inhibition of human FLT3 catalytic domain expressed in baculovirus assessed as substrate phosphorylation using fluorescence-labelled peptides as substrate at 70 uM after 90 mins by microfluidic peptide phosphorylation assay.
Test [6] deals with Protein kinase C gamma type (Homo sapiens) (UniProt P05129). The test can be described thus: Inhibition of human truncated PKC gamma expressed in baculovirus assessed as substrate phosphorylation using fluorescence-labelled peptides as substrate at 70 uM after 90 mins by microfluidic peptide phosphorylation assay.
Test [7] addresses T2, Serine/threonine-protein kinase Sgk1 (Homo sapiens) (UniProt O00141).
T2 sequence (whole entry): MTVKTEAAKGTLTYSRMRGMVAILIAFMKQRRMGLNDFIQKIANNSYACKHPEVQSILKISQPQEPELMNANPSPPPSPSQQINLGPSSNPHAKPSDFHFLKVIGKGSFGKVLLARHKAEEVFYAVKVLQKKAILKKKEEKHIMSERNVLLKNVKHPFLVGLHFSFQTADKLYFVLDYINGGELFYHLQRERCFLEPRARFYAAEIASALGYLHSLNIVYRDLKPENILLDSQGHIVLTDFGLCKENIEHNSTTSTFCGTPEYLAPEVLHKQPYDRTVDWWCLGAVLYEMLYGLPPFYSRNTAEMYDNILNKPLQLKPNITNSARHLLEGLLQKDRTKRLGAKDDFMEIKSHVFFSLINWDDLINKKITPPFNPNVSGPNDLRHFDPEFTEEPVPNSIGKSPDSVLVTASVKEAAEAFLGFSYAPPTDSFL
In words: Inhibition of human truncated SGK1 expressed in baculovirus assessed as substrate phosphorylation using fluorescence-labelled peptides as substrate at 2 uM after 90 mins by microfluidic peptide phosphorylation assay.

The target in test [8] is Epidermal growth factor receptor (Homo sapiens) (UniProt P00533). In words: Inhibition of human EGFR catalytic domain expressed in baculovirus assessed as substrate phosphorylation using fluorescence-labelled peptides as substrate at 95 uM after 90 mins by microfluidic peptide phosphorylation assay.
In test [9] the target is Protein kinase C gamma type (Homo sapiens) (UniProt P05129). In words: Inhibition of human truncated PKC gamma expressed in baculovirus assessed as substrate phosphorylation using fluorescence-labelled peptides as substrate at 1000 uM after 90 mins by microfluidic peptide phosphorylation assay.
Test [10] deals with MAP/microtubule affinity-regulating kinase 3 (Homo sapiens) (UniProt P27448). The test can be described thus: Inhibition of human full length c-TAK1 expressed in Escherichia coli cell assessed as substrate phosphorylation using fluorescence-labelled peptides as substrate at 1000 uM after 90 mins by microfluidic peptide phosphorylation assay.
For test [11], the target named is Ribosomal protein S6 kinase alpha-1 (Homo sapiens) (UniProt Q15418). The test can be described thus: Inhibition of human full length RSK1 expressed in baculovirus assessed as substrate phosphorylation using fluorescence-labelled peptides as substrate at […] after 90 mins by microfluidic peptide phosphorylation assay.
Test [12] has as its target T3, Interleukin-1 receptor-associated kinase 4 (Homo sapiens) (UniProt Q9NWZ3).
T3 sequence (whole entry): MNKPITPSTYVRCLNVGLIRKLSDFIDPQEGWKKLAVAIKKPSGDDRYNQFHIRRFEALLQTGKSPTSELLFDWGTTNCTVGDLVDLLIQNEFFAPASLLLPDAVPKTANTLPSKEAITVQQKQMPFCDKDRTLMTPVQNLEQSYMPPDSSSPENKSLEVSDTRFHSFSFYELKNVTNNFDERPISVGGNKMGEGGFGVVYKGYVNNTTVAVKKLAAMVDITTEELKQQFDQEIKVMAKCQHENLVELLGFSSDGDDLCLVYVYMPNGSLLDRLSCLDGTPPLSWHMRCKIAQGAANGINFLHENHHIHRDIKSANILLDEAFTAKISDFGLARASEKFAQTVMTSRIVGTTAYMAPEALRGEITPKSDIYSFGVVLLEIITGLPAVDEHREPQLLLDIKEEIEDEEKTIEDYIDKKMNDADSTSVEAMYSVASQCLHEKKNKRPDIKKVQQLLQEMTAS
In words: Inhibition of human IRAK4 catalytic domain expressed in baculovirus assessed as substrate phosphorylation using fluorescence-labelled peptides as substrate at […] after 90 mins by microfluidic peptide phosphorylation assay.

For orientation: inhibition means the drop in the measured response relative to a control, in per cent.

Sequence of MAP/microtubule affinity-regulating kinase 3 (Homo sapiens) (P27448 whole entry, looked up, the tested form may be a part): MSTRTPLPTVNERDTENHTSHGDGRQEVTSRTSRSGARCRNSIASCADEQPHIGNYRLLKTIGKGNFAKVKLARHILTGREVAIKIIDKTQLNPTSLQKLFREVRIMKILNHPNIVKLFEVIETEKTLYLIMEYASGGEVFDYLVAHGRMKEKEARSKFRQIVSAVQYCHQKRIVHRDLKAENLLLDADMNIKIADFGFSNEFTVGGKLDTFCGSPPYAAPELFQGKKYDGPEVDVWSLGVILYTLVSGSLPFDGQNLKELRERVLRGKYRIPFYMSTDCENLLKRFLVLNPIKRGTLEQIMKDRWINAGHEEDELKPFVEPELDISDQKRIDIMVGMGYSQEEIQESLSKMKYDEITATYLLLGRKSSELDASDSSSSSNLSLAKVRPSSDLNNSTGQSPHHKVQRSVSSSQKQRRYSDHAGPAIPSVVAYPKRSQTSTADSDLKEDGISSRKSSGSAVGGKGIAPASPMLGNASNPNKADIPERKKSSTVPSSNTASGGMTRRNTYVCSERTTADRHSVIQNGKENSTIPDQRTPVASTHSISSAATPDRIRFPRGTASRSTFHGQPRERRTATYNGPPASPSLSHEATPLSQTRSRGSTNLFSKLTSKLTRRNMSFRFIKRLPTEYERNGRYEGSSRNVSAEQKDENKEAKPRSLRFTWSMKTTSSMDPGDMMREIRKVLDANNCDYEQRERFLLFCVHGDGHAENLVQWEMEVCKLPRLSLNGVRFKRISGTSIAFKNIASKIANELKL
Sequence of Ribosomal protein S6 kinase alpha-1 (Homo sapiens) (Q15418 whole entry): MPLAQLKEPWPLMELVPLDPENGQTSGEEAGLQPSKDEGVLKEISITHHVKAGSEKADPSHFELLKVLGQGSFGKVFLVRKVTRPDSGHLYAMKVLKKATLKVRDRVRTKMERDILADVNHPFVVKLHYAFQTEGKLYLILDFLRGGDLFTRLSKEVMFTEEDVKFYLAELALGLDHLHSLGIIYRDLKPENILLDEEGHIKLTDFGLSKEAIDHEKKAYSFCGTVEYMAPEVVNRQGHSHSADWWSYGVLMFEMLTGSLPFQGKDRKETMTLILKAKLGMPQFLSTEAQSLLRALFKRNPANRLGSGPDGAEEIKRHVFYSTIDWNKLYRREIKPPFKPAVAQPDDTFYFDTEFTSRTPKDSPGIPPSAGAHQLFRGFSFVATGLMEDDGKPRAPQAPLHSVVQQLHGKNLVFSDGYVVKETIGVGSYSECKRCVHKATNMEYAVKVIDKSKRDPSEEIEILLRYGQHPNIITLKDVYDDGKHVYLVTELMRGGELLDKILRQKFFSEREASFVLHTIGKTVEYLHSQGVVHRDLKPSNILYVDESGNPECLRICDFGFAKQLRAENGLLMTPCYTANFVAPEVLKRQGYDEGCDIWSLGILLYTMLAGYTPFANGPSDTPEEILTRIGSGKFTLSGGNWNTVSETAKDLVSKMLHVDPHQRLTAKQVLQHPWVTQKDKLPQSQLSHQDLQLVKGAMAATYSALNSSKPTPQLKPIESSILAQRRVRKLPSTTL
Sequence of Epidermal growth factor receptor (Homo sapiens) (P00533 whole entry, the tested form may be a part): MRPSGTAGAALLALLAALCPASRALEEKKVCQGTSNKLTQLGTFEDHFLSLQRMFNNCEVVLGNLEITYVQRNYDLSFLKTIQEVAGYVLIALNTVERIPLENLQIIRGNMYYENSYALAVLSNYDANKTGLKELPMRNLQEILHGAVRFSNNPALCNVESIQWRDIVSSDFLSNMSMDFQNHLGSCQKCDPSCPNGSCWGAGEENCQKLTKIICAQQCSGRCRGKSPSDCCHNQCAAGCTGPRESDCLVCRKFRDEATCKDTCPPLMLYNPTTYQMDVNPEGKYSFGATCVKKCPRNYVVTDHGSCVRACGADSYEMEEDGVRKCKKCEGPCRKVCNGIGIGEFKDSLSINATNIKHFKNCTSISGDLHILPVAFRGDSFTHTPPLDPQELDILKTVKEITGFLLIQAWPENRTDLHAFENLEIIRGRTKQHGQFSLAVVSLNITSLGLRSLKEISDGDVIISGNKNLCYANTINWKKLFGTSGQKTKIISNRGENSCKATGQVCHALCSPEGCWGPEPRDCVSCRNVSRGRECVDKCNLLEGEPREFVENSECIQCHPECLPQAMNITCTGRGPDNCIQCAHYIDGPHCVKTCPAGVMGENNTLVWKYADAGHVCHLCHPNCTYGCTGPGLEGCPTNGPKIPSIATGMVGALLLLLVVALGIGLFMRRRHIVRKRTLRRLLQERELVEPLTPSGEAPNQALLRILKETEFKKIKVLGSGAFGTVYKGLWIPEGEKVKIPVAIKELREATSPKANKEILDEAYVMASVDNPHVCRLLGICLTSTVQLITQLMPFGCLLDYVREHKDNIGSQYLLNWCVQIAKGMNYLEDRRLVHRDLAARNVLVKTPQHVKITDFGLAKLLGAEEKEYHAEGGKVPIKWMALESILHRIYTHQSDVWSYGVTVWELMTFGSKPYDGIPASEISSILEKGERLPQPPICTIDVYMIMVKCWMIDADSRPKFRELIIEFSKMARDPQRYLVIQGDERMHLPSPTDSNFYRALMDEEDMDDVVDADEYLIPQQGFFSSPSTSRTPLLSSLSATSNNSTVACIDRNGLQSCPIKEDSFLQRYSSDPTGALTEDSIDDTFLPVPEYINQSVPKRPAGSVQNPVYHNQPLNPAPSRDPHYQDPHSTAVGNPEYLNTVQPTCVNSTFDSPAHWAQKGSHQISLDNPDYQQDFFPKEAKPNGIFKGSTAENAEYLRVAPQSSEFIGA
Sequence of Tyrosine-protein kinase Lck (Homo sapiens) (P06239 2-509 limits assumed): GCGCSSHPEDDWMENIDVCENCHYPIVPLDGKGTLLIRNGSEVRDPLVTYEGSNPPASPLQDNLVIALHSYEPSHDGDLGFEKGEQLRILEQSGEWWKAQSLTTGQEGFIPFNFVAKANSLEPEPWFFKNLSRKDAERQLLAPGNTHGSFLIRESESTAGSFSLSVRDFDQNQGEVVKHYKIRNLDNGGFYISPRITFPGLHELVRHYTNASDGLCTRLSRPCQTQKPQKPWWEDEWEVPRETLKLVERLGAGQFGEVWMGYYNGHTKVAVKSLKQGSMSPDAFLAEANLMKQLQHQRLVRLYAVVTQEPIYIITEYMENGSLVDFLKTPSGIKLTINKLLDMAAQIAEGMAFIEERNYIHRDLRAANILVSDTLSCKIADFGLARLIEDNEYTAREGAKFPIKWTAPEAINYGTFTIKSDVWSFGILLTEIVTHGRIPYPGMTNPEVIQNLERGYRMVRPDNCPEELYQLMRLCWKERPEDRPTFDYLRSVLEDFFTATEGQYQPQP

In the case of `c1nc(N2CCOCC2)c2nc[nH]c2n1`, the inhibition in [1] came out at 93%; in test [2], 86.5%.
With `NC1(Cc2ccc(Cl)cc2)CCN(c2ncnc3[nH]ccc23)CC1`, in [3], the inhibition is 0%.
As for `NCC1CN(c2ncnc3[nH]c4cnccc4c23)CCO1` (configuration not stated), the inhibition in [4] amounted to 39%.
`CNCc1ccc(-c2ncnc3[nH]cnc23)cc1`: the figures for the inhibition in [5] and in test [6] were 36% and 64%, respectively.
On to `NC1CCN(c2ncnc3[nH]ccc23)CC1`, for which the inhibition in test [7] came to 27%.
Turning to `NCCc1ccc(-c2ncnc3[nH]cnc23)cc1`, in test [8], the inhibition turned out to be 19.5%.
For the compound `c1cnc2[nH]ccc2c1`, the inhibition in [9] came out at 57%; in [10] it was 77%.
With `COC(=O)c1cnc(Nc2cnc(C#N)cn2)cc1NCC1CCNCC1`, the results for the inhibition in test [11] and in test [12] were 37% and 5.5%, respectively.
